{"source": "patent US20200325234A1", "about": "“IMMUNE-BASED TREATMENT OF KRAS-VARIANT CANCER PATIENTS” (MIRA DX, INC., priority 2016, published 2020)", "origin": "cited, not measured here", "tested_on": "KRAS-variant patients", "key": {"[1]": {"conditions": "KRAS-variant patients with non-small cell lung cancer (NSCLC)"}}, "note": "Like-named read-outs stand apart in the source and are kept apart here.", "data": [{"smiles": "N.N.[Cl][Pt][Cl]", "note": "[cisplatin]", "values": [{"measurement": "response to therapy", "setting": "KRAS-variant patients with ovarian or head and neck cancer", "value": "resistance"}]}, {"smiles": "C#Cc1cccc(Nc2ncnc3cc(OCCOC)c(OCCOC)cc23)c1", "note": "[erlotonib]", "values": [{"measurement": "response to therapy", "setting": "[1]", "value": "resistance"}]}, {"smiles": "CNC(=O)c1cc(Oc2ccc(NC(=O)Nc3ccc(Cl)c(C(F)(F)F)c3)cc2)ccn1", "note": "[sorafenib]", "values": [{"measurement": "response to therapy", "setting": "[1]", "value": "sensitivity"}]}]}
